Columns and labels:
corn = assay: Herbicidal effect by upland field soil treatment (Application Example 1): phytotoxicity to corn; type: in vivo; settings: 30th day from treatment
Description: (§1) Test for Herbicidal Effect by Upland Field Soil Treatment
(§2) An upland field soil was filled in a plastic pot of 11 cm each of length, width and depth. Seeds of corn, green foxtail (Setaria viridis) and common lambsquarters (Chenopodium album L.) were sowed, followed by covering with the same soil. The wettable powder produced in accordance with Formulation 1 was weighed so as to provide active ingredients in a predetermined amount, and was diluted with water and sprayed uniformly on the soil surface using a small sprayer, in an amount of 100 liters per […]. Then, growing was made in a greenhouse, and the herbicidal effect of each wettable powder was examined at the 30th day from the treatment in accordance with the standard shown in Table 15.

[1] = tested on: green foxtail (Setaria viridis); assay: Herbicidal effect by upland field soil treatment (Application Example 1): green foxtail; type: in vivo; settings: 30th day from treatment
Description: as §1, §2

[2] = tested on: common lambsquarters (Chenopodium album L.); assay: Herbicidal effect by upland field soil treatment (Application Example 1): common lambsquarters; type: in vivo; settings: 30th day from treatment
Description: as §1, §2

[3] = 32 g a.i./ha, upland field soil treatment
[4] = 32 g a.i./ha, soil surface spray of wettable powder, index of Table 15
[5] = 500 g a.i./ha, soil surface spray of wettable powder, index of Table 15
[6] = 500 g a.i./ha, upland field soil treatment
[7] = 16 g a.i./ha, upland field soil treatment
[8] = 16 g a.i./ha, soil surface spray of wettable powder, index of Table 15

| SMILES | melting point [°C] | Herbicidal effect Corn (corn; [7]) | Herbicidal effect Green foxtail (Sataria viridis) [1, 7] | Herbicidal effect Common lambsquarter (Chenopodium album L.) [2, 7] | further results |
| --- | --- | --- | --- | --- | --- |
| CCS(=O)(=O)c1c(CS(=O)(=O)C2=NOC(C)(C)C2)c(C(F)(F)F)nn1-c1ccccc1 [Compound 3-0004, 5,5-dimethyl-3-(5-ethylsulfonyl-1-phenyl-3-trifluoromethyl-1H-pyrazol-4-ylmethylsulfonyl)-2-isoxazoline] | 158 to 160 |  |  |  | Herbicidal effect Corn (corn; [3]): 0 (Herbicidal effect or phytotoxicity of from 0 to 9%); Herbicidal effect Green foxtail (Sataria viridis) [1, 3]: 3 (Herbicidal effect or phytotoxicity of from 30 to 39%); Herbicidal effect Common lambsquarter (Chenopodium album L.) [2, 3]: 2 (Herbicidal effect or phytotoxicity of from 20 to 29%) |
| CC1(C)CC(S(=O)(=O)Cc2c(C(F)(F)F)nn(-c3ccccc3)c2Cl)=NO1 [Compound 3-0002, 3-(5-chloro-1-phenyl-3-trifluoromethyl-1H-pyrazol-4-ylmethylsulfonyl)-5,5-dimethyl-2-isoxazoline] | 132 to 133 |  |  |  | Herbicidal effect Corn (corn; [3]): 0 (Herbicidal effect or phytotoxicity of from 0 to 9%); Herbicidal effect Green foxtail (Sataria viridis) [1, 3]: 5 (Herbicidal effect or phytotoxicity of from 50 to 59%); Herbicidal effect Common lambsquarter (Chenopodium album L.) [2, 3]: 2 (Herbicidal effect or phytotoxicity of from 20 to 29%) |
| Cn1nc(C(F)(F)F)c(CS(=O)(=O)C2=NOC(C)(C)C2)c1Oc1ccccc1Cl [Compound 3-0014, 3-(5-(2-chlorophenoxy)-1-methyl-3-trifluoromethyl-1H-pyrazol-4-ylmethylsulfonyl)-5,5-dimethyl-2-isoxazoline] | 67 to 70 |  |  |  | Herbicidal effect Corn (corn; [3]): 0 (Herbicidal effect or phytotoxicity of from 0 to 9%); Herbicidal effect Green foxtail (Sataria viridis) [1, 3]: 2 (Herbicidal effect or phytotoxicity of from 20 to 29%); Herbicidal effect Common lambsquarter (Chenopodium album L.) [2, 3]: 2 (Herbicidal effect or phytotoxicity of from 20 to 29%) |
| CON=C(C)c1c(C)sc(C)c1CS(=O)(=O)C1=NOC(C)(C)C1 [Compound 2-0001, 5,5-dimethyl-3-[2,5-dimethyl-4-(1-methoxyiminoethyl)-thiophen-3-ylmethylsulfonyl]-2-isoxazoline] | 95 to 96 |  |  |  | Herbicidal effect Corn (corn; [4]): 0 (Herbicidal effect or phytotoxicity of from 0 to 9%); Herbicidal effect Green foxtail (Sataria viridis) [1, 4]: 2 (Herbicidal effect or phytotoxicity of from 20 to 29%); Herbicidal effect Common lambsquarter (Chenopodium album L.) [2, 4]: 1 (Herbicidal effect or phytotoxicity of from 10 to 19%) |
| CC1(C)CC(SCc2c(Cl)nn(C(F)F)c2C(F)(F)F)=NO1 | 89 to 90 |  |  |  |  |
| CCNc1nc(Cl)nc(NC(C)(C)C#N)n1 [Cyanazine, cyanazine, reference compound] |  |  |  |  | Herbicidal effect Corn (corn; [5]): 0 (Herbicidal effect or phytotoxicity of from 0 to 9%); Herbicidal effect Corn (corn; [6]): 0 (Herbicidal effect or phytotoxicity of from 0 to 9%); Herbicidal effect Green foxtail (Sataria viridis) [1, 5]: 1 (Herbicidal effect or phytotoxicity of from 10 to 19%); Herbicidal effect Green foxtail (Sataria viridis) [1, 6]: 1 (Herbicidal effect or phytotoxicity of from 10 to 19%); Herbicidal effect Common lambsquarter (Chenopodium album L.) [2, 5]: 2 (Herbicidal effect or phytotoxicity of from 20 to 29%); Herbicidal effect Common lambsquarter (Chenopodium album L.) [2, 6]: 2 (Herbicidal effect or phytotoxicity of from 20 to 29%) |
| Cn1nc(C(F)F)c(CS(=O)(=O)C2=NOC(C)(C)C2)c1Cl [Compound 3-0018, 3-(5-chloro-3-difluoromethyl-1-methyl-1H-pyrazol-4-ylmethylsulfonyl)-5,5-dimethyl-2-isoxazoline] | 78 to 79 | 0 (Herbicidal effect or phytotoxicity of from 0 to 9%) | 3 (Herbicidal effect or phytotoxicity of from 30 to 39%) | 3 (Herbicidal effect or phytotoxicity of from 30 to 39%) |  |
| Cn1nc(C(F)(F)F)c(CS(=O)(=O)C2=NOC(C)(C)C2)c1OC(F)F [Compound 3-0188, 3-(5-difluoromethoxy-1-methyl-3-trifluoromethyl-1H-pyrazol-4-ylmethanesulfonyl)-5,5-dimethyl-2-isoxazoline] |  |  |  |  | Herbicidal effect Green foxtail (Sataria viridis) [1, 8]: 3 (Herbicidal effect or phytotoxicity of from 30 to 39%); Herbicidal effect Common lambsquarter (Chenopodium album L.) [2, 8]: 2 (Herbicidal effect or phytotoxicity of from 20 to 29%) |
| CC1(C)CC(S(=O)(=O)Cc2c(Cl)nn(C(F)F)c2C(F)(F)F)=NO1 [Compound 3-0011, 3-(3-chloro-1-difluoromethyl-5-trifluoromethyl-1H-pyrazol-4-ylmethylsulfonyl)-5,5-dimethyl-2-isoxazoline] | 136 to 137 | 0 (Herbicidal effect or phytotoxicity of from 0 to 9%) | 3 (Herbicidal effect or phytotoxicity of from 30 to 39%) | 2 (Herbicidal effect or phytotoxicity of from 20 to 29%) |  |
| CC1(C)CC(S(=O)(=O)Cc2cnccc2C(F)(F)F)=NO1 | 77 to 80 |  |  |  |  |
| CCn1nc(Cl)c(CS(=O)(=O)C2=NOC(C)(C)C2)c1Cl [Compound 3-0017, 3-(3,5-dichloro-1-ethyl-1H-pyrazol-4-ylmethylsulfonyl)-5,5-dimethyl-2-isoxazoline] | 105 to 107 | 0 (Herbicidal effect or phytotoxicity of from 0 to 9%) | 3 (Herbicidal effect or phytotoxicity of from 30 to 39%) | 3 (Herbicidal effect or phytotoxicity of from 30 to 39%) |  |
| Cn1nc(C(F)(F)F)c(CS(=O)(=O)C2=NOC(C)(C)C2)c1C#N [Compound 3-0016, 3-(5-cyano-1-methyl-3-trifluoromethyl-1H-pyrazol-4-ylmethylsulfonyl)-5,5-dimethyl-2-isoxazoline] | 105 to 108 | 0 (Herbicidal effect or phytotoxicity of from 0 to 9%) | 3 (Herbicidal effect or phytotoxicity of from 30 to 39%) | 3 (Herbicidal effect or phytotoxicity of from 30 to 39%) |  |
| CN(C)c1c(CS(=O)(=O)C2=NOC(C)(C)C2)c(C(F)(F)F)nn1-c1ccccc1 [Compound 3-0005, 5,5-dimethyl-3-(5-dimethylamino-1-phenyl-3-trifluoromethyl-1H-pyrazol-4-ylmethylsulfonyl)-2-isoxazoline] | 150 to 151 |  |  |  | Herbicidal effect Corn (corn; [3]): 0 (Herbicidal effect or phytotoxicity of from 0 to 9%); Herbicidal effect Green foxtail (Sataria viridis) [1, 3]: 2 (Herbicidal effect or phytotoxicity of from 20 to 29%); Herbicidal effect Common lambsquarter (Chenopodium album L.) [2, 3]: 2 (Herbicidal effect or phytotoxicity of from 20 to 29%) |
| CC1(C)CC(S(=O)(=O)Cc2c(C(F)(F)F)nn(C(F)F)c2Cl)=NO1 [Compound 3-0010, 3-(5-chloro-1-difluoromethyl-3-trifluoromethyl-1H-pyrazol-4-ylmethylsulfonyl)-5,5-dimethyl-2-isoxazoline] | 126 to 127 | 0 (Herbicidal effect or phytotoxicity of from 0 to 9%) | 2 (Herbicidal effect or phytotoxicity of from 20 to 29%) | 2 (Herbicidal effect or phytotoxicity of from 20 to 29%) |  |
| CC1(C)CC(SCc2c(C(F)(F)F)nn(C(F)F)c2Cl)=NO1 | 41 to 42 |  |  |  |  |
| COc1c(CS(=O)(=O)C2=NOC(C)(C)C2)c(C(F)(F)F)nn1C [Compound 3-0013, 5,5-dimethyl-3-(5-methoxy-1-methyl-3-trifluoromethyl-1H-pyrazol-4-ylmethylsulfonyl)-2-isoxazoline] | 113 to 114 | 0 (Herbicidal effect or phytotoxicity of from 0 to 9%) | 2 (Herbicidal effect or phytotoxicity of from 20 to 29%) | 2 (Herbicidal effect or phytotoxicity of from 20 to 29%) |  |
| CC1(C)CC(SCc2c(C(F)(F)F)n[nH]c2Cl)=NO1 | 120 to 122 |  |  |  |  |
| CCOc1nn(C)c(C(F)(F)F)c1CS(=O)(=O)C1=NOC(C)(C)C1 [Compound 3-0012, 5,5-dimethyl-3-(3-ethoxy-1-methyl-5-trifluoromethyl-1H-pyrazol-4-ylmethylsulfonyl)-2-isoxazoline] | 124 to 125 | 0 (Herbicidal effect or phytotoxicity of from 0 to 9%) | 2 (Herbicidal effect or phytotoxicity of from 20 to 29%) | 1 (Herbicidal effect or phytotoxicity of from 10 to 19%) |  |
| COc1ncnc(C(F)(F)F)c1CS(=O)(=O)C1=NOC(C)(C)C1 [Compound 8-0001, 5,5-dimethyl-[(4-methoxy-6-trifluoromethylpyrimidin-5-yl)-methylsulfonyl]-2-isoxazoline] |  |  |  |  | Herbicidal effect Corn (corn; [8]): 0 (Herbicidal effect or phytotoxicity of from 0 to 9%); Herbicidal effect Green foxtail (Sataria viridis) [1, 8]: 2 (Herbicidal effect or phytotoxicity of from 20 to 29%); Herbicidal effect Common lambsquarter (Chenopodium album L.) [2, 8]: 1 (Herbicidal effect or phytotoxicity of from 10 to 19%) |
| CC1(C)CC(SCc2c(C(F)(F)F)nn(C(C)(C)C)c2Cl)=NO1 | 79 to 81 |  |  |  |  |
| CC1(C)CC(S(=O)(=O)Cc2c(C(F)(F)F)nn3c2OCCC3)=NO1 | 151 to 152 |  |  |  |  |
| Cc1nsc(Cl)c1CS(=O)(=O)C1=NOC(C)(C)C1 [Compound 4-0002, [(5-chloro-3-methyl-isothiazol-4-yl)-methylsulfonyl]-5,5-dimethyl-2-isoxazoline] |  |  |  |  | Herbicidal effect Corn (corn; [4]): 0 (Herbicidal effect or phytotoxicity of from 0 to 9%); Herbicidal effect Green foxtail (Sataria viridis) [1, 4]: 3 (Herbicidal effect or phytotoxicity of from 30 to 39%); Herbicidal effect Common lambsquarter (Chenopodium album L.) [2, 4]: 2 (Herbicidal effect or phytotoxicity of from 20 to 29%) |
| CC1(C)CC(SCc2c(C(F)(F)F)nn(-c3ccccc3)c2Cl)=NO1 | 89 to 90 |  |  |  |  |
